Measurements: BindingDB's records for doi:10.1016/s0960-894x(98)00494-6 (University of Michigan, 1999)

Experiment: Compound was evaluated for inhibition of Protease

| IC50 | SMILES |
| --- | --- |
| 80 nM | C[C@H](NC(=O)[C@H](Cc1ccccc1)NC(=O)OCc1ccccc1)C(=O)[C@@H]1CO1 [[(S)-1-((S)-1-Methyl-2-(S)-oxiranyl-2-oxo-ethylcarbamoyl)-2-phenyl-ethyl]-carbamic acid benzyl ester] |
| > 1000 nM | O=C(N[C@@H](Cc1ccccc1)C(=O)N[C@@H](CCc1ccccc1)C(=O)[C@H]1CO1)OCc1ccccc1 [{(S)-1-[(S)-1-((R)-Oxiranecarbonyl)-3-phenyl-propylcarbamoyl]-2-phenyl-ethyl}-carbamic acid benzyl ester] |
| 1000 nM | C[C@H](NC(=O)[C@H](Cc1ccccc1)NC(=O)OCc1ccccc1)C(=O)[C@H]1CO1 [[(S)-1-((S)-1-Methyl-2-(R)-oxiranyl-2-oxo-ethylcarbamoyl)-2-phenyl-ethyl]-carbamic acid benzyl ester] |
| 10 nM | O=C(N[C@@H](Cc1ccccc1)C(=O)N[C@@H](CCc1ccccc1)C(=O)[C@@H]1CO1)OCc1ccccc1 [{(S)-1-[(S)-1-((S)-Oxiranecarbonyl)-3-phenyl-propylcarbamoyl]-2-phenyl-ethyl}-carbamic acid benzyl ester] |
